# Reference: PMC6225228, “Design, Synthesis and Evaluation of N-pyrazinylbenzamides as Potential Antimycobacterial Agents” (Molecules : A Journal of Synthetic Chemistry and Natural …, 2018)
# Like-named read-outs stand apart in the source and are kept apart here.
# Legend:
# [1] = system: Staphylococcus aureus CCM 4516/08; test: Antibacterial microdilution broth, SA; type: cell-based
# [2] = system: Staphylococcus epidermidis H 6966/08; test: Antibacterial microdilution broth, SE; type: cell-based; settings: Staphylococcus epidermidis, read-out: MIC SE
# [3] = system: Trichophyton interdigitale 445; test: Antifungal microdilution broth, TI; type: cell-based; settings: read-out: MIC TI
# [4] = system: Pseudomonas aeruginosa CCM 1961; test: Antibacterial microdilution broth, PA; type: cell-based; settings: Pseudomonas aeruginosa, read-out: MIC PA
# [5] = system: Mycobacterium tuberculosis H37Rv CNCTC My 331/88 (ATCC 27294); test: Antimycobacterial microdilution MABA, M. tuberculosis; type: cell-based; settings: for MIC: Mycobacterium tuberculosis
# Trichosporon asahii 1188 = test: Antifungal microdilution broth, TA; type: cell-based; settings: read-out: MIC TA
# [6] = human, HepG2 cells
# [7] = system: M. avium ssp. avium CNCTC My 80/72 (ATCC 15769); test: Antimycobacterial microdilution MABA, M. avium; type: cell-based, Mycobacterium avium
# Candida krusei E28 = test: Antifungal microdilution broth, CK; type: cell-based; settings: read-out: MIC CK
# [8] = system: Staphylococcus aureus H 5996/08 methicillin resistant; test: microbe, parasite or virus in culture; type: cell-based; settings: Staphylococcus aureus, MRSA, read-out: MIC MRSA
# [9] = system: Mycobacterium smegmatis CCM 4622 (ATCC 607); test: Antimycobacterial microdilution, M. smegmatis; type: cell-based; settings: Mycolicibacterium smegmatis, read-out: M. smeg. ATCC 607 MIC
# [10] = system: Enterococcus sp. J 14365/08; test: Antibacterial microdilution broth, EF; type: cell-based; settings: Enterococcus, read-out: MIC EF
# [11] = system: Candida albicans ATCC 44859; test: Antifungal microdilution broth, CA; type: cell-based; settings: read-out: MIC CA
# [12] = system: Aspergillus fumigatus 231; test: Antifungal microdilution broth, AF; type: cell-based; settings: read-out: MIC AF
# [13] = system: Escherichia coli CCM 4517; test: Antibacterial microdilution broth, EC; type: cell-based; settings: Escherichia coli, read-out: MIC EC
# [14] = system: M. kansasii CNCTC My 235/80 (ATCC 12478); test: Antimycobacterial microdilution MABA, M. kansasii; type: cell-based, Mycobacterium kansasii
# Candida glabrata 20/I = test: Antifungal microdilution broth, CG; type: cell-based; settings: read-out: MIC CG
# Candida tropicalis 156 = test: Antifungal microdilution broth, CT; type: cell-based; settings: read-out: MIC CT
# [15] = system: Lichtheimia corymbifera 272; test: Antifungal microdilution broth, LC; type: cell-based; settings: read-out: MIC LC
# [16] = system: eight fungal strains of clinical importance; test: Antifungal microdilution, all tested fungal strains; type: cell-based; settings: read after 24 h (Trichophyton interdigitale 72 h)
# [17] = Middlebrook 7H9 with OADC, pH 6.6, MABA
structure (smiles),measurement,setting,value
Cc1ccc(C(=O)Nc2cnc(Cl)cn2)cc1 [Compound 2h],MIC,"[1]; 24 h, read-out: MIC SA",>125 µM
same,MIC,"[1]; Staphylococcus aureus, CCM4516, 24 h, read-out: MIC SA, 24 h",> 125 µM
same,MIC,"[1]; Staphylococcus aureus, CCM4516, 48 h, read-out: MIC SA, 48 h",> 125 µM
same,MIC,"[2]; H6966/08, 24 h",> 125 µM
same,MIC,"[2]; H6966/08, 48 h",> 125 µM
same,MIC,"[3]; Trichophyton interdigitale, 445, 72 h",> 125 µM
same,MIC,"[3]; Trichophyton interdigitale, 445, 120 h",> 125 µM
same,MIC,"[4]; CCM1961, 72 h",> 125 µM
same,MIC,"[4]; CCM1961, 120 h",> 125 µM
same,Mtb H37Rv ATCC 27294 MIC,"[5]; Middlebrook 7H9 with OADC growth supplement, pH = 6.6, MABA",6.25 µg/mL
same,MIC,"[5]; read-out: Mtb H37Rv ATCC 27294 MIC, Middlebrook 7H9 with OADC growth supplement, pH = 6.6, MABA",3.13 to 6.25 µg/mL
same,MIC,"[5]; read-out: Mtb MIC, molar concentration",25.2 µM
same,MIC,"Trichosporon asahii 1188; Trichosporon asahii, 1188, 24 h",> 125 µM
same,MIC,"Trichosporon asahii 1188; Trichosporon asahii, 1188, 48 h",> 125 µM
same,IC50 at 24 h,[6],> 250 µM
same,M. avium ATCC 15769 MIC,[7]; [17],>100 µg/mL
same,MIC,"[7]; Mycobacterium avium, ATCC15769, pH 6.6, read-out: M. avium ATCC 15769 MIC",> 100 µg/mL
same,MIC,"Candida krusei E28; Pichia kudriavzevii, E28, 24 h",> 125 µM
same,MIC,"Candida krusei E28; Pichia kudriavzevii, E28, 48 h",> 125 µM
same,MIC,[8]; 24 h,> 125 µM
same,MIC,[8]; 48 h,> 125 µM
same,MIC,[9],≥ 500 µg/mL
same,MIC,"[10]; SP.J14365/08, 24 h",> 125 µM
same,MIC,"[10]; SP.J14365/08, 48 h",> 125 µM
same,MIC,"[11]; Candida albicans, ATCC44859, 24 h",> 125 µM
same,MIC,"[11]; Candida albicans, ATCC44859, 48 h",> 125 µM
same,MIC,"[12]; Aspergillus fumigatus, 231, 24 h",> 125 µM
same,MIC,"[12]; Aspergillus fumigatus, 231, 48 h",> 125 µM
same,melting point,,186.4 to 187.1 °C
same,MIC,"[13]; CCM4517, 24 h",> 125 µM
same,MIC,"[13]; CCM4517, 48 h",> 125 µM
same,M. kans. ATCC 12478 MIC,[14]; [17],>100 µg/mL
same,MIC,"[14]; Mycobacterium kansasii, ATCC12478, pH 6.6, read-out: M. kans. ATCC 12478 MIC, Middlebrook 7H9 with OADC, pH 6.6, MABA",> 100 µg/mL
same,MIC,"Candida glabrata 20/I; Nakaseomyces glabratus, 20/I, 24 h",> 125 µM
same,MIC,"Candida glabrata 20/I; Nakaseomyces glabratus, 20/I, 48 h",> 125 µM
same,MIC,"Candida tropicalis 156; Candida tropicalis, 156, 24 h",> 125 µM
same,MIC,"Candida tropicalis 156; Candida tropicalis, 156, 48 h",> 125 µM
same,MIC,"[15]; Lichtheimia corymbifera, 272, 24 h",> 125 µM
same,MIC,"[15]; Lichtheimia corymbifera, 272, 48 h",> 125 µM
"C[C@@H]1[C@H](O)[C@@H](C)/C=C/C=C/CC/C=C/C=C/C=C/C=C/C(O[C@H]2O[C@H](C)[C@@H](O)[C@H](N)[C@@H]2O)CC2O[C@](O)(CC(O)C(O)CCC(O)CC(O)CC(O)CC(=O)O[C@H]1C)CC(O)C2C(=O)O (some centres unmarked) [NYS, nystatin, reference compound]","MIC, all tested fungal strains",[16],0.98 to 15.62 µM
same,MIC,[3]; 72 h,3.9 µM
same,MIC,[3]; 120 h,7.81 µM
same,MIC,Trichosporon asahii 1188; 24 h,1.95 µM
same,MIC,Trichosporon asahii 1188; 48 h,1.95 µM
same,MIC,Candida krusei E28; 24 h,1.95 µM
same,MIC,Candida krusei E28; 48 h,3.9 µM
same,MIC,[11]; 24 h,0.98 µM
same,MIC,[11]; 48 h,1.95 µM
same,MIC,[12]; 24 h,1.95 µM
same,MIC,[12]; 48 h,3.9 µM
same,MIC,Candida glabrata 20/I; 24 h,1.95 µM
same,MIC,Candida glabrata 20/I; 48 h,3.9 µM
same,MIC,Candida tropicalis 156; 24 h,1.95 µM
same,MIC,Candida tropicalis 156; 48 h,3.9 µM
same,MIC,[15]; 24 h,15.62 µM
same,MIC,[15]; 48 h,31.25 µM
